Test results as given in US11629171B2, “Beta-hairpin peptidomimetics” (POLYPHOR AG, priority 2017, dated 2023).
In brackets after ≈: the same amount, converted by molar mass. Where a SMILES comes first, the peptide text is derived from it. Bridges are numbered along the chain shown (N, C = ends). Roman numbers before positions name the chains, in order. [ ]: non-standard residue; d: D form. The star is where a group is joined. aThr = C[C@H](O)[C@H](N)C(=O)O; Tle = CC(C)(C)[C@H](N)C(=O)O; dDab = NCC[C@@H](N)C(=O)O; Nle = CCCC[C@H](N)C(=O)O; Dab = NCC[C@H](N)C(=O)O; Nva = CCC[C@H](N)C(=O)O; Abu = CC[C@H](N)C(=O)O; Dap = NC[C@H](N)C(=O)O; Propionyl = CCC(=O)*

What was measured:
Format in all cases: cell-based
[1] = system: human red blood cells (hRBC); experiment: Hemolysis; details: red cells of human, 1 h, 200
Procedure, shortened: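 Read-out is supernatant absorbance at 540 nm, normalised to full lysis by 2% Triton X-100 and zero lysis by PBS with 10% water. Peptides (200 μg/mL) were exposed to 20% v/v washed human erythrocytes at 37° C for 1 h under shaking.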

[2] = system: Enterobacter cloacae 848840; details: 848840
Procedure, shortened: (§1)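 Cation-adjusted MH-II broth, 0.002% polysorbate 80, inoculum near 10^6 CFU/mL. MIC read visually after 18-20 h, 35° C; units μg/mL.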

[3] = system: Escherichia coli ATCC 25922; details: ATCC 25922
Procedure, shortened: as §1

[4] = system: Klebsiella pneumoniae SSI #3010; details: SSI #3010
Procedure, shortened: as §1

[5] = system: Acinetobacter baumannii 872842; details: 872842
Procedure, shortened: as §1

Escherichia coli 926415 = details: 926415
Procedure, shortened: as §1

[6] = system: Klebsiella pneumoniae 968733; details: 968733
Procedure, shortened: as §1

[7] = system: Pseudomonas aeruginosa ATCC 27853; details: ATCC 27853
Procedure, shortened: as §1

[8] = system: Acinetobacter baumannii DSM 30008; details: DSM 30008
Procedure, shortened: as §1

Compound | Hemolysis at 200 μg/mL [1] [%] | MIC [2] [µg/mL] | MIC [3] [µg/mL] | MIC [4] [µg/mL] | MIC [5] [µg/mL] | MIC (Escherichia coli 926415) [µg/mL] | MIC [6] [µg/mL] | MIC [7] [µg/mL] | MIC [8] [µg/mL]
CC(=O)N[C@H](C(=O)N[C@H]1CSSC[C@@H](C(=O)N[C@H](C(N)=O)[C@@H](C)O)NC(=O)[C@H](C(C)(C)C)NC(=O)[C@H](CO)NC(=O)[C@H](Cc2c[nH]c3ccccc23)NC(=O)[C@H](CO)NC(=O)[C@@H](CCN)NC(=O)[C@H](CCC(=O)N[C@@H](CCN)C(=O)N[C@H](C(=O)N[C@@H](CN)C(=O)N[C@H]2CCNC(=O)[C@H]([C@@H](C)O)NC(=O)[C@H](CCN)NC(=O)[C@H](CCN)NC(=O)[C@H]([C@@H](C)O)NC(=O)[C@@H](CC(C)C)NC(=O)[C@H](CCN)NC2=O)[C@@H](C)O)NC(=O)[C@H](CCN)NC(=O)[C@H](Cc2ccc(O)cc2)NC1=O)C(C)C [Ex. 139] (I: Ac-VCY[Dab]E[dDab]SWS[Tle]CT-NH2 / II: [Dab]T[Dap][Dab][Dab][dL]T[Dab][Dab]T; disulfide I:2-I:11; amide I:5-II:N; lactam II:4-II:C) | 2 | 0.125 (≈ 0.0518 µM) | 0.0625 (≈ 0.0259 µM) | 0.0625 (≈ 0.0259 µM) | 0.0625 (≈ 0.0259 µM) | 0.125 (≈ 0.0518 µM) | 0.25 (≈ 0.104 µM) | 0.25 (≈ 0.104 µM) | 0.0625 (≈ 0.0259 µM)
CC(=O)N[C@H](C(=O)N[C@H]1CSSC[C@@H](C(=O)N[C@H](C(N)=O)[C@@H](C)O)NC(=O)[C@H](C(C)(C)C)NC(=O)[C@H](CO)NC(=O)[C@H](Cc2c[nH]c3ccccc23)NC(=O)[C@H](CO)NC(=O)[C@@H](CCN)NC(=O)[C@H](CCC(=O)N[C@@H](CCN)C(=O)N[C@H](C(=O)N[C@@H](CN)C(=O)N[C@H]2CCNC(=O)[C@H]([C@@H](C)O)NC(=O)[C@H](CCN)NC(=O)[C@H](CCN)NC(=O)[C@H]([C@H](C)O)NC(=O)[C@@H](CC(C)C)NC(=O)[C@H](CCN)NC2=O)[C@@H](C)O)NC(=O)[C@H](CCN)NC(=O)[C@H](Cc2ccc(O)cc2)NC1=O)C(C)C [Ex. 140] (I: Ac-VCY[Dab]E[dDab]SWS[Tle]CT-NH2 / II: [Dab]T[Dap][Dab][Dab][dL][aThr][Dab][Dab]T; disulfide I:2-I:11; amide I:5-II:N; lactam II:4-II:C) | <1 | 0.25 (≈ 0.104 µM) | 0.125 (≈ 0.0518 µM) | 0.125 (≈ 0.0518 µM) | 0.5 (≈ 0.207 µM) | 0.25 (≈ 0.104 µM) | 0.5 (≈ 0.207 µM) | 0.25 (≈ 0.104 µM) | 0.125 (≈ 0.0518 µM)
CCC[C@@H]1NC(=O)[C@@H](CC(C)C)NC(=O)[C@H](CCN)NC(=O)[C@@H](NC(=O)[C@H](CN)NC(=O)[C@@H](NC(=O)[C@H](CCN)NC(=O)CC[C@@H]2NC(=O)[C@H](CCN)NC(=O)[C@H](Cc3ccc(O)cc3)NC(=O)[C@@H](NC(=O)[C@@H](NC(C)=O)C(C)C)CSSC[C@@H](C(=O)N[C@H](C(N)=O)[C@@H](C)O)NC(=O)[C@H](C(C)(C)C)NC(=O)[C@H](CO)NC(=O)[C@H](Cc3c[nH]c4ccccc34)NC(=O)[C@H](CO)NC(=O)[C@@H](CCN)NC2=O)[C@@H](C)O)CCNC(=O)[C@H]([C@@H](C)O)NC(=O)[C@H](CCN)NC(=O)[C@H](CCN)NC1=O [Ex. 141] (I: Ac-VCY[Dab]E[dDab]SWS[Tle]CT-NH2 / II: [Dab]T[Dap][Dab][Dab][dL][Nva][Dab][Dab]T; disulfide I:2-I:11; amide I:5-II:N; lactam II:4-II:C) | 2 | 0.0625 (≈ 0.0259 µM) | 0.03125 (≈ 0.013 µM) | 0.03125 (≈ 0.013 µM) | 0.0625 (≈ 0.0259 µM) | 0.03125 (≈ 0.013 µM) | 0.03125 (≈ 0.013 µM) | 0.125 (≈ 0.0518 µM) | 0.03125 (≈ 0.013 µM)
CCCC[C@H](NC(C)=O)C(=O)N[C@H]1CSSC[C@@H](C(=O)N[C@H](C(N)=O)[C@@H](C)O)NC(=O)[C@H](C(C)(C)C)NC(=O)[C@H](CO)NC(=O)[C@H](Cc2c[nH]c3ccccc23)NC(=O)[C@H](CO)NC(=O)[C@@H](CCN)NC(=O)[C@H](CCC(=O)N[C@@H](CCN)C(=O)N[C@H](C(=O)N[C@@H](CN)C(=O)N[C@H]2CCNC(=O)[C@H]([C@@H](C)O)NC(=O)[C@H](CCN)NC(=O)[C@H](CCN)NC(=O)[C@H](CC)NC(=O)[C@@H](CC(C)C)NC(=O)[C@H](CCN)NC2=O)[C@@H](C)O)NC(=O)[C@H](CCN)NC(=O)[C@H](Cc2ccc(O)cc2)NC1=O [Ex. 142] (I: Ac-[Nle]CY[Dab]E[dDab]SWS[Tle]CT-NH2 / II: [Dab]T[Dap][Dab][Dab][dL][Abu][Dab][Dab]T; disulfide I:2-I:11; amide I:5-II:N; lactam II:4-II:C) | <1 | 0.125 (≈ 0.0518 µM) | 0.0625 (≈ 0.0259 µM) | 0.03125 (≈ 0.013 µM) | 0.03125 (≈ 0.013 µM) | 0.03125 (≈ 0.013 µM) | 0.0625 (≈ 0.0259 µM) | 0.125 (≈ 0.0518 µM) | 0.03125 (≈ 0.013 µM)
CC[C@@H]1NC(=O)[C@@H](CC(C)C)NC(=O)[C@H](CCN)NC(=O)[C@@H](NC(=O)[C@H](CN)NC(=O)[C@@H](NC(=O)[C@H](CCN)NC(=O)CC[C@@H]2NC(=O)[C@H](CCN)NC(=O)[C@H](Cc3ccc(O)cc3)NC(=O)[C@@H](NC(=O)[C@@H](NC(C)=O)C(C)C)CSSC[C@@H](C(=O)N[C@H](C(N)=O)[C@@H](C)O)NC(=O)[C@H]([C@@H](C)CC)NC(=O)[C@H](CO)NC(=O)[C@H](Cc3c[nH]c4ccccc34)NC(=O)[C@H](CO)NC(=O)[C@@H](CCN)NC2=O)[C@@H](C)O)CCNC(=O)[C@H]([C@@H](C)O)NC(=O)[C@H](CCN)NC(=O)[C@H](CCN)NC1=O [Ex. 143] (I: Ac-VCY[Dab]E[dDab]SWSICT-NH2 / II: [Dab]T[Dap][Dab][Dab][dL][Abu][Dab][Dab]T; disulfide I:2-I:11; amide I:5-II:N; lactam II:4-II:C) | 2 | 0.0625 (≈ 0.0261 µM) | 0.03125 (≈ 0.013 µM) | 0.0625 (≈ 0.0261 µM) | 0.03125 (≈ 0.013 µM) | 0.125 (≈ 0.0521 µM) | 0.0625 (≈ 0.0261 µM) | 0.125 (≈ 0.0521 µM) | 0.0625 (≈ 0.0261 µM)
CCC(=O)N[C@H](C(=O)N[C@H]1CSSC[C@@H](C(=O)N[C@@H](CO)C(N)=O)NC(=O)[C@H](C(C)(C)C)NC(=O)[C@H](CO)NC(=O)[C@H](Cc2c[nH]c3ccccc23)NC(=O)[C@H](CO)NC(=O)[C@@H](CCN)NC(=O)[C@H](CCC(=O)N[C@@H](CCN)C(=O)N[C@H](C(=O)N[C@@H](CN)C(=O)N[C@H]2CCNC(=O)[C@H]([C@@H](C)O)NC(=O)[C@H](CCN)NC(=O)[C@H](CCN)NC(=O)[C@H](CC(C)C)NC(=O)[C@@H](CC(C)C)NC(=O)[C@H](CCN)NC2=O)[C@@H](C)O)NC(=O)[C@H](CCN)NC(=O)[C@H](Cc2ccc(O)cc2)NC1=O)C(C)C [Ex. 144] (I: Propionyl-VCY[Dab]E[dDab]SWS[Tle]CS-NH2 / II: [Dab]T[Dap][Dab][Dab][dL]L[Dab][Dab]T; disulfide I:2-I:11; amide I:5-II:N; lactam II:4-II:C) | <1 | 0.125 (≈ 0.0515 µM) | 0.03125 (≈ 0.0129 µM) | 0.0625 (≈ 0.0258 µM) | 0.0625 (≈ 0.0258 µM) | 0.0625 (≈ 0.0258 µM) | 0.0625 (≈ 0.0258 µM) | 0.125 (≈ 0.0515 µM) | 0.0625 (≈ 0.0258 µM)
CNC(=O)[C@H](CO)NC(=O)[C@@H]1CSSC[C@H](NC(=O)[C@@H](NC(C)=O)C(C)C)C(=O)N[C@@H](Cc2ccc(O)cc2)C(=O)N[C@@H](CCN)C(=O)N[C@@H](CCC(=O)N[C@@H](CCN)C(=O)N[C@H](C(=O)N[C@@H](CN)C(=O)N[C@H]2CCNC(=O)[C@H]([C@@H](C)O)NC(=O)[C@H](CCN)NC(=O)[C@H](CCN)NC(=O)[C@H](CC(C)C)NC(=O)[C@@H](CC(C)C)NC(=O)[C@H](CCN)NC2=O)[C@@H](C)O)C(=O)N[C@H](CCN)C(=O)N[C@@H](CO)C(=O)N[C@@H](Cc2c[nH]c3ccccc23)C(=O)N[C@@H](CO)C(=O)N[C@@H](C(C)(C)C)C(=O)N1 [Ex. 145] (I: Ac-VCY[Dab]E[dDab]SWS[Tle]CS-NHMe / II: [Dab]T[Dap][Dab][Dab][dL]L[Dab][Dab]T; disulfide I:2-I:11; amide I:5-II:N; lactam II:4-II:C) | 2 | 0.125 (≈ 0.0515 µM) | 0.0625 (≈ 0.0258 µM) | 0.125 (≈ 0.0515 µM) | 0.03125 (≈ 0.0129 µM) | 0.0625 (≈ 0.0258 µM) | 0.125 (≈ 0.0515 µM) | 0.125 (≈ 0.0515 µM) | 0.0625 (≈ 0.0258 µM)
